From ChEMBL document CHEMBL1201862, “PubChem BioAssay data set” (2004)
The source made the active and inactive calls.

Key:
[1] = target: T1, Calpain-2 catalytic subunit (Sus scrofa, UniProt P43367); test: m-calpain protease blockers, concentration series – biochemical, fluorogenic peptide substrate, dose response (AID 1420); type: functional
T1 sequence (P43367 whole entry): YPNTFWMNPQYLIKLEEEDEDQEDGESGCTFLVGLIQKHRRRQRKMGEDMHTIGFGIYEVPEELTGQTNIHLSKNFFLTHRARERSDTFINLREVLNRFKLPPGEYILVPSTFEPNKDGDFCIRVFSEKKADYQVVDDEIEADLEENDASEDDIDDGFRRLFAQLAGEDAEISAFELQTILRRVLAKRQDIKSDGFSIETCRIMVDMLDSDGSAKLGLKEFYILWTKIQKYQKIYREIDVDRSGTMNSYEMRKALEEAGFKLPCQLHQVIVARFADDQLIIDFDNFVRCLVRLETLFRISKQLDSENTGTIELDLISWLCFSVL

[2] = test system: H9c2; test: cells; type: functional, cell-based; settings: Rattus norvegicus, H9c2, Myocardium;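 further: confirmatory concentration-response retest of ultra-high-throughput screening hits for modulation of myocardial damage; cell death induced by hydrogen peroxide oxidative stress; compound pretreatment for 60 min then peroxide exposure for 2 h; potency is for protecting the cells against peroxide damage rather than for killing them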
[3] = reduction of Shn3 3'UTR-driven luciferase in osteoblasts – cell-based, Clone20 osteoblasts, firefly luciferase, cherry-picked, dose response (AID 624132); type: functional;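 further: firefly luciferase luminescence from reporter carrying the Shn3 3'UTR in osteoblasts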
[4] = non-specific 3'UTR reporter inhibition in Clone20-Shn3RL – cell-based, Renilla luciferase, cherry-picked, counter-screen for Shn3 inhibitor project, dose response (AID 624133); type: functional
[5] = target: T2, Corticotropin-releasing factor receptor 2/Corticotropin-releasing factor-binding protein (Homo sapiens, UniProt P24387+Q13324); test: activators of CRF receptor 2 with binding protein – uHTS hits, confirmation (AID 602473); type: functional; settings: read-out: EC50_Mean
T2 sequence (Q13324 whole entry): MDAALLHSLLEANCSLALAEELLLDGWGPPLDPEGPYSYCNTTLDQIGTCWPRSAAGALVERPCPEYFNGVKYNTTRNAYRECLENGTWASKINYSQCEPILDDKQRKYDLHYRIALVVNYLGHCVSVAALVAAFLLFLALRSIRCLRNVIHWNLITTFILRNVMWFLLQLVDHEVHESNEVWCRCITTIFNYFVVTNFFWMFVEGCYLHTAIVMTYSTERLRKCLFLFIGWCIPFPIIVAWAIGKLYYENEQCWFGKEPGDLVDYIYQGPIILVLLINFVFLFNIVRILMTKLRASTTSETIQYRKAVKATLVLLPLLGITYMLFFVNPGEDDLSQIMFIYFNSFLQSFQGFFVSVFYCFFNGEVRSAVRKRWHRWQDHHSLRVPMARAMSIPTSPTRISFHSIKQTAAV
T2 sequence (P24387 whole entry): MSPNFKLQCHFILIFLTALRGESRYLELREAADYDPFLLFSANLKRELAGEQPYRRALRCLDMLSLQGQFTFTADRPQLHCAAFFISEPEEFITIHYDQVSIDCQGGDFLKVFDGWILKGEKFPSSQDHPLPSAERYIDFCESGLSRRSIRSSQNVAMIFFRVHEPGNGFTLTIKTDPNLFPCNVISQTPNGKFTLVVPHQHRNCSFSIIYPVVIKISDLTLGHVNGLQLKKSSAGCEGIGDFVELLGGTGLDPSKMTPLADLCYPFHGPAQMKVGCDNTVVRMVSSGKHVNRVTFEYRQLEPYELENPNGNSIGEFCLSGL

[6] = target: Genome polyprotein (dengue virus type 2, UniProt P29990); test: flavivirus cap methylation enzyme inhibition – biochemical, confirmation dose response, primary screen (AID 588689); type: functional
Chain of Genome polyprotein (P29990 2492-3391 limits assumed): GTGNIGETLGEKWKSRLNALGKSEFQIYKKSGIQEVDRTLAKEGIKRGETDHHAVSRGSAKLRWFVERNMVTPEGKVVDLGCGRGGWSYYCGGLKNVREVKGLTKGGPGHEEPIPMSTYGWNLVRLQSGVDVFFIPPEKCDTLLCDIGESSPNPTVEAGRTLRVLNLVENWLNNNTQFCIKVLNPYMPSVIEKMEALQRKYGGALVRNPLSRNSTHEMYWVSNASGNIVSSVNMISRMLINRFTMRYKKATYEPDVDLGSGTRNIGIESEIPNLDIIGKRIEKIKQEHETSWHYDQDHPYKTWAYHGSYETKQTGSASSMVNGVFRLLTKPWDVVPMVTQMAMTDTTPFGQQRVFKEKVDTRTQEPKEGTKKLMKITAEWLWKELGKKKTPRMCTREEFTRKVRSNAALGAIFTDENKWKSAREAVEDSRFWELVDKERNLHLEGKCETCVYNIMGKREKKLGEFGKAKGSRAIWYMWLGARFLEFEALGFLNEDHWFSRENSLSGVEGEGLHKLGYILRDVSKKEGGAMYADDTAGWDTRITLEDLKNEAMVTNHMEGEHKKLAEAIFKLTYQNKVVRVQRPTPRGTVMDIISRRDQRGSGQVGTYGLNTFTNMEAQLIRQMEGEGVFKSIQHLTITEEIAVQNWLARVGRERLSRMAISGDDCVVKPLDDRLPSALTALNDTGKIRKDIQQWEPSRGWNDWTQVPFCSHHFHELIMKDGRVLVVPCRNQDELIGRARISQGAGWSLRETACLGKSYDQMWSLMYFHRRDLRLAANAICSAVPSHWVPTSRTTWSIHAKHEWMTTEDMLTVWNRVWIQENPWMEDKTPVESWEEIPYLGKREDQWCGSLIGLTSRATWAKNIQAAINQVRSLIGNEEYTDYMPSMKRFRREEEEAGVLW

[7] = target: Cytochrome P450 2C19 (Homo sapiens, UniProt P33261); test: Cytochrome panel assay with activity outcomes. Panel member name: p450-cyp2c19 Compounds with AC50 equal or less than 10 uM are considered active; type: functional; settings: read-out: AC50
Chain of Cytochrome P450 2C19 (P33261 whole entry): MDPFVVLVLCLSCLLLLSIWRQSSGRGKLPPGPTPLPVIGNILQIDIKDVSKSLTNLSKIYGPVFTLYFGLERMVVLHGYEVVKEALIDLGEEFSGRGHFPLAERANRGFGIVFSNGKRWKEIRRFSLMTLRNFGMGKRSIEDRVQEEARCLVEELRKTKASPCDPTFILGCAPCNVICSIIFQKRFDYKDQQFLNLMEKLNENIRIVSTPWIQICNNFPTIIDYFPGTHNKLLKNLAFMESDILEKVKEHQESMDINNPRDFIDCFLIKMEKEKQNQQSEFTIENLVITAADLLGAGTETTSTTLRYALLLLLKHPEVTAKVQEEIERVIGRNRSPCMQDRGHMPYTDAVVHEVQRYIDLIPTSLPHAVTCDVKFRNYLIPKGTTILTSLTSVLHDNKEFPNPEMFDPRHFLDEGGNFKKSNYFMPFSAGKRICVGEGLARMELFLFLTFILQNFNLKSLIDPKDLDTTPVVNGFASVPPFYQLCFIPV

[8] = target: T3, Cytochrome P450 1A2 (Homo sapiens, UniProt P05177);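 further: PubChem cytochrome P450 panel assay, CYP1A2 panel member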
T3 sequence (P05177 whole entry): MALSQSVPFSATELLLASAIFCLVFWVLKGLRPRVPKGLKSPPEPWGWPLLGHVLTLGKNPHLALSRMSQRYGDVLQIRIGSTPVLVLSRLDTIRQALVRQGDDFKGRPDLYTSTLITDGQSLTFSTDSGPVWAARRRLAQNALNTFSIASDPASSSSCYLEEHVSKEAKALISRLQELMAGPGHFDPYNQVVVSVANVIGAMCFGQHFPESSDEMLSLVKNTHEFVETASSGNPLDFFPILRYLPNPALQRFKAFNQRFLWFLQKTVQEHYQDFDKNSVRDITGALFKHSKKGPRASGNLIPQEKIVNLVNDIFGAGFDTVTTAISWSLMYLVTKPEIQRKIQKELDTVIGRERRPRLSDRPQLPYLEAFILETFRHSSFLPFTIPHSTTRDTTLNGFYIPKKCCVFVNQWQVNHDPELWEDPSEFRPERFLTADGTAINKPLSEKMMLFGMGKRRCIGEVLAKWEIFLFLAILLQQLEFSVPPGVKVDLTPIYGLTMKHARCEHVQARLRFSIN

[9] = target: Cytochrome P450 2C9 (Homo sapiens, UniProt P11712)
Chain of Cytochrome P450 2C9 (P11712 whole entry): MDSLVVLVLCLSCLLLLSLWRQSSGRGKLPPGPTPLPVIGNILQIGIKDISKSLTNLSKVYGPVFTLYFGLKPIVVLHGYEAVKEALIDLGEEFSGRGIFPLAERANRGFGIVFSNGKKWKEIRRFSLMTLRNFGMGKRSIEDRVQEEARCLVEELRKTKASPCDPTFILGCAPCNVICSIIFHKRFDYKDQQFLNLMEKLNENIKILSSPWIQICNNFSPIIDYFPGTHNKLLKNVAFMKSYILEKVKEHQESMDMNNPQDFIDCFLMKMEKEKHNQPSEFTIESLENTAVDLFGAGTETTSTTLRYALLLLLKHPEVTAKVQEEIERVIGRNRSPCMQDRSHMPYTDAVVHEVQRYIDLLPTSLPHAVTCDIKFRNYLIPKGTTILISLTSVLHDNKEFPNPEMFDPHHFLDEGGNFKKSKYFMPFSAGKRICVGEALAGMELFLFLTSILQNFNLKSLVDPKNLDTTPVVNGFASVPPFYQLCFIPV

[10] = test system: HEK293; test: EBV LMP1 TES2 canonical NF-kB signalling blockers – cell-based, HEK293, luciferase, cherry-pick, dose response (AID 588343); type: functional; settings: Homo sapiens
[11] = P. falciparum Dd2 growth inhibitors, dose response, SYBR Green, cherry-picked samples (AID 1159567); type: functional, cell-based

CCCCNC(=S)NC(=O)c1ccc(Cl)cc1Cl
IC50 [1]: 4.25 µM (not active)

COc1cc2c(cc1OC)CN(CC(=O)Nc1ccccc1C#N)CC2
IC50 [2]: 34.2 µM (inactive)

CC1CN(C(=O)CCc2cc(C(C)(C)C)c(O)c(C(C)(C)C)c2)CC(C)O1 (stereo unspecified)
AC50 [3]: 2.56 µM (active)
AC50 [4]: 3.99 µM (active)

CC(=O)Nc1ccc(NC(=O)Cc2ccc(S(=O)(=O)N3CCCCC3)s2)cc1
IC50 [1]: 2.64 µM (not active)

CCOC(=O)N1CCN(C(=O)CSc2nc3ccccc3c(=O)n2-c2ccccc2)CC1
IC50 [2]: 19.5 µM (active)

CCOC(=O)c1c(NC(=O)C(C)Sc2cccc[n+]2[O-])sc2c1CCN(Cc1ccccc1)C2 (stereo unspecified)
EC50 [5]: 4.81 µM (active)

COc1ccc(C2=CC(c3ccc(C)cc3)n3nnnc3N2)cc1 (stereo unspecified)
EC50 [5]: > 53 µM (inactive)

CCC(C(=O)OCC(=O)Nc1ccc(Cl)c(S(=O)(=O)N(C)C)c1)c1ccccc1 (stereo unspecified)
IC50 [1]: 13.3 µM (not active)

CCc1ccc([C@@H]2CC=C(C(=O)O)[C@H](c3ccc(C)cc3)N2S(=O)(=O)c2ccc(C)cc2)cc1
IC50 [6]: 41.2 µM (active)

CCN(CC(=O)Nc1ccc2c(c1)OCCO2)C(=O)c1cccc(S(=O)(=O)N2CCOCC2)c1
AC50 [7]: 22.4 µM (inconclusive)
AC50 [8]: 12.6 µM (inconclusive)
AC50 [9]: 11.2 µM (inconclusive)

Oc1ccc(Cl)cc1/C=N/c1ccc(Br)cc1
IC50 [2]: 22.3 µM (active)

NC(=O)c1ccccc1/N=C/c1ccccn1
IC50 [2]: 22.4 µM (active)

O=[N+]([O-])c1cccc(-c2ccc(/C=N/Nc3nc(N4CCCCC4)nc(N4CCCCC4)n3)o2)c1
AC50 [10]: 96.7 µM (active)

Cc1ccc(/C=N/NC(=O)CSc2nc3nc(C)cc(C)n3n2)cc1
AC50 [8]: 4.47 µM (inconclusive)
AC50 [9]: 22.4 µM (inconclusive)

CC(=O)Nc1nc(CCl)cs1
IC50 [1]: > 50 µM (not active)

COc1ccc(-c2ccc3c(c2)[C@H]2[C@H](CCN2C(=O)NC2CCCC2)[C@H](CO)N3C)cc1
AC50 [11]: 5.37 µM (active)

O=C(Nc1ccccc1F)N1CC(=O)N2[C@H](CO)[C@@H](c3ccc(-c4ccccc4)cc3)[C@H]2C1
AC50 [11]: 14.5 µM (active)
